Read-outs that look alike come from different tables or passages of the source.
What was measured:
BRAF = molecular target: T1, BRAF (Homo sapiens, UniProt P15056); assay: BRAF-inhibiting activity, time-resolved fluorescence-fluorescence resonance energy transfer assay; format: biochemical
T1 construct: purchased Eurofins Genomics KK; (BRAF); Thermo Fisher Scientific Inc. (MEK1)
Procedure: The BRAF-inhibiting activity of the compounds listed in Table 3 below was evaluated by the time-resolved fluorescence-fluorescence resonance energy transfer assay as described below.

A549 = assay: Cell proliferation-inhibiting activity (ATP in viable cells, CellTiter-Glo), A549; format: cell-based, human; settings: A549, 96 h; human lung cancer cells, 4 days; read-out: A549 IC50
NCI-H2122 = assay: Cell proliferation-inhibiting activity (ATP in viable cells, CellTiter-Glo), NCI-H2122; format: cell-based, human; settings: NCI-H2122, 96 h; human lung cancer cells, 4 days; read-out: NCI-H2122 IC50
MEK1 [1] = molecular target: T2, MEK1 (Homo sapiens, UniProt Q02750); assay: MEK1-inhibiting activity, fluorescent polarization method (CRAF/MEK1/ERK2 cascade, IMAP); format: biochemical; settings: Table 3
T2 construct: purchased Thermo Fisher Scientific Inc. (MEK1, CRAF); Carna Biosciences, Inc. (ERK2)

[2] = Human liver microsome stability; format: in vitro ADME; settings: human liver microsomes, pH 7.4
MEK1 [3] = molecular target: T2, MEK1; assay: MEK1-inhibiting activity, fluorescent polarization method (CRAF/MEK1/ERK2 cascade, IMAP); format: biochemical; settings: Table 3; read-out: MEK1 IC50
Procedure: The MEK1-inhibiting activity of the compounds listed in Table 3 below were evaluated by the fluorescent polarization method as described below.

Calu-6 = assay: Cell proliferation-inhibiting activity (ATP in viable cells, CellTiter-Glo), Calu-6; format: cell-based, human; settings: Calu-6, 96 h; human lung cancer cells, 4 days; read-out: Calu-6 IC50

T2 sequence (Q02750 whole entry): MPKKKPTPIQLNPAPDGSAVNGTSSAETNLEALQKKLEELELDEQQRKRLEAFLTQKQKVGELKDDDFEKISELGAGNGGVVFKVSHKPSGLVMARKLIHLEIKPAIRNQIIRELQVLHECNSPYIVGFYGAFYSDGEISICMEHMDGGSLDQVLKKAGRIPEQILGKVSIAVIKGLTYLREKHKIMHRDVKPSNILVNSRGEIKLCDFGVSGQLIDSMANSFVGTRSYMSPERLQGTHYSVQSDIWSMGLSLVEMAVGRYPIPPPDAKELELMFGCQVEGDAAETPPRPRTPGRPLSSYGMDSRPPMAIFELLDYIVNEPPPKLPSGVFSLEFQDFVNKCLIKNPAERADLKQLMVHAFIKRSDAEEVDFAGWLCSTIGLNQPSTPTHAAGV
T1 sequence (P15056 417-766 limits assumed): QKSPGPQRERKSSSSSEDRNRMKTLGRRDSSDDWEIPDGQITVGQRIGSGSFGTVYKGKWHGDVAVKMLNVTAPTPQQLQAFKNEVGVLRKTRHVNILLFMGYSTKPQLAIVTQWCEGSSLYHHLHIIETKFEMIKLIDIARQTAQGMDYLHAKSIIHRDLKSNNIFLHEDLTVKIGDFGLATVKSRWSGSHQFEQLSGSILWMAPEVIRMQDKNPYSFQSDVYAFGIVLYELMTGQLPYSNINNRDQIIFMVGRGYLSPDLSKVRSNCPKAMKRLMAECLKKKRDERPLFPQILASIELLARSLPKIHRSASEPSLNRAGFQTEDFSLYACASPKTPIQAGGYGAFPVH

CNS(C)(=O)=Nc1nccc(Cc2cc(C(N)=O)c(Nc3ccc(I)cc3F)c(F)c2F)c1F (centres unmarked) [Compound A-43, 3,4-Difluoro-2-(2-fluoro-4-iodoanilino)-5-[[3-fluoro-2-[[methyl-(methylamino)-oxo-λ6-sulfanylidene]amino]pyridin-4-yl]methyl]benzamide]
IC50 (BRAF; Table 3; read-out: BRAF IC50): 0.01 µM
IC50 (A549): 0.002 µM
IC50 (NCI-H2122): 0.013 µM
IC50 (MEK1 [1]): 0.041 µM
microsomal CLint at 0.99 µM [2]: 37 µL/min/mg

CNS(=O)(=O)Nc1nccc(Cc2cc(C(N)=O)c(Nc3ccc4sccc4c3F)c(F)c2F)c1F [Compound H-3, 3,4-difluoro-2-[(4-fluoro-1-benzothiophen-5-yl)amino]-5-[[3-fluoro-2-(methylsulfamoylamino)pyridin-4-yl]methyl]benzamide]
IC50 (BRAF; Table 3; read-out: BRAF IC50): 0.004 µM
IC50 (MEK1 [1]): 0.002 µM
microsomal CLint at 0.99 µM [2]: 149 µL/min/mg

CCS(=O)(=O)Nc1cccc(Cc2cc(C(N)=O)c(Nc3ccc(I)cc3F)n(C)c2=O)c1F [Compound K-10, 5-[[3-(Ethylsulfonylamino)-2-fluorophenyl]methyl]-2-(2-fluoro-4-iodoanilino)-1-methyl-6-oxopyridine-3-carboxamide]
IC50 (BRAF; read-out: BRAF IC50; Table 3): 0.008 µM
IC50 (A549): 0.025 µM
IC50 (MEK1 [3]): 0.128 µM
IC50 (Calu-6): 0.081 µM
IC50 (NCI-H2122): 0.016 µM
microsomal CLint at 0.99 µM [2]: 69 µL/min/mg

CNS(=O)(=O)Nc1nccc(Cc2cc(C(=O)NOC(C)(C)C)c(Nc3ccc(I)cc3F)c(F)c2F)c1F [Compound A-8, 3,4-difluoro-2-(2-fluoro-4-iodoanilino)-5-[[3-fluoro-2-(methylsulfamoylamino)pyridin-4-yl]methyl]-N-[(2-methylpropan-2-yl)oxy]benz amide]
IC50 (BRAF; read-out: BRAF IC50; Table 3): 0.004 µM
IC50 (A549): 0.0004 µM
IC50 (MEK1 [3]): 0.003 µM
IC50 (Calu-6): 0.002 µM
IC50 (NCI-H2122): 0.0001 µM
microsomal CLint at 0.99 µM [2]: 33 µL/min/mg

CNS(=O)(=O)Nc1nccc(Cc2cc(C(=O)NC3CC3)c(Nc3ccc(I)cc3F)n(C)c2=O)c1F [Compound J-5, N-cyclopropyl-2-(2-fluoro-4-iodoanilino)-5-[[3-fluoro-2-(methylsulfamoylamino)pyridin-4-yl]methyl]-1-methyl-6-oxopyridine-3-carbo xamide]
IC50 (BRAF; read-out: BRAF IC50; Table 3): 0.008 µM
IC50 (A549): 0.007 µM
IC50 (MEK1 [3]): 0.117 µM
IC50 (Calu-6): 0.029 µM
IC50 (NCI-H2122): 0.004 µM
microsomal CLint at 0.99 µM [2]: 20 µL/min/mg

Cn1c(Nc2ccc(I)cc2F)c(C(=O)NC2CC2)cc(Cc2cccc(NS(=O)(=O)NC3CC3)c2F)c1=O [Compound K-5, N-Cyclopropyl-5-[[3-(cyclopropylsulfamoylamino)-2-fluorophenyl]methyl]-2-(2-fluoro-4-iodoanilino)-1-methyl-6-oxopyridine-3-carboxamide]
IC50 (BRAF; read-out: BRAF IC50; Table 3): 0.009 µM
IC50 (A549): 0.025 µM
IC50 (MEK1 [3]): 0.139 µM
IC50 (Calu-6): 0.11 µM
IC50 (NCI-H2122): 0.023 µM
microsomal CLint at 0.99 µM [2]: 245 µL/min/mg

COCC1(S(=O)(=O)Nc2cccc(Cc3cc(C(=O)NOC(C)(C)C)c(Nc4ccc(I)cc4F)c(F)c3F)c2F)CC1 [Compound E-4]
IC50 (BRAF; read-out: BRAF IC50; Table 3): 0.011 µM
IC50 (A549): 0.006 µM
IC50 (MEK1 [3]): 0.131 µM
IC50 (Calu-6): 0.026 µM
IC50 (NCI-H2122): 0.005 µM
microsomal CLint at 0.99 µM [2]: 168 µL/min/mg

CNS(=O)(=O)Nc1nccc(Cc2cc(C(=O)NOC)c(Nc3ccc(I)cc3F)n(C)c2=O)c1F [Compound J-8, 2-(2-fluoro-4-iodoanilino)-5-[[3-fluoro-2-(methylsulfamoylamino)pyridin-4-yl]methyl]-N-methoxy-1-methyl-6-oxopyridine-3-carboxamide]
IC50 (BRAF; read-out: BRAF IC50; Table 3): 0.002 µM
IC50 (A549): 0.024 µM
IC50 (MEK1 [3]): 0.015 µM
IC50 (Calu-6): 0.077 µM
IC50 (NCI-H2122): 0.005 µM
microsomal CLint at 0.99 µM [2]: 3 µL/min/mg

CCS(=O)(=O)Nc1cccc(Cc2cc(C(=O)NOC)c(Nc3ccc(I)cc3F)c(F)c2F)c1F [Compound E-1, 5-[[3-(ethylsulfonylamino)-2-fluorophenyl]methyl]-3,4-difluoro-2-(2-fluoro-4-iodoanilino)-N-methoxybenzamide]
IC50 (BRAF; read-out: BRAF IC50; Table 3): 0.012 µM
IC50 (A549): 0.002 µM
IC50 (MEK1 [3]): 0.04 µM
IC50 (Calu-6): 0.006 µM
IC50 (NCI-H2122): 0.0004 µM
microsomal CLint at 0.99 µM [2]: 17 µL/min/mg

CCS(=O)(=O)Nc1cccc(Cc2cc(C(N)=O)c(Nc3ccc(I)cc3F)c(F)c2F)c1F [Compound D-4, 5-[[3-(ethylsulfonylamino)-2-fluorophenyl]methyl]-3,4-difluoro-2-(2-fluoro-4-iodoanilino)benzamide]
IC50 (BRAF; read-out: BRAF IC50; Table 3): 0.003 µM
IC50 (A549): 0.016 µM
IC50 (MEK1 [3]): 0.196 µM
IC50 (Calu-6): 0.067 µM
IC50 (NCI-H2122): 0.005 µM
microsomal CLint at 0.99 µM [2]: 9 µL/min/mg

Cn1c(Nc2ccc(I)cc2F)c(C(N)=O)cc(Cc2cccc(NS(=O)(=O)C3(C)CC3)c2F)c1=O [Compound K-6, 2-(2-Fluoro-4-iodoanilino)-5-[[2-fluoro-3-[(1-methylcyclopropyl)sulfonylamino]phenyl]methyl]-1-methyl-6-oxopyridine-3-carboxamide]
IC50 (BRAF; read-out: BRAF IC50; Table 3): 0.015 µM
IC50 (A549): 0.025 µM
IC50 (MEK1 [3]): 0.227 µM
IC50 (Calu-6): 0.083 µM
IC50 (NCI-H2122): 0.021 µM
microsomal CLint at 0.99 µM [2]: 499 µL/min/mg

CNS(=O)(=O)Nc1nccc(Cc2cc(C(=O)NC3CC3C)c(Nc3ccc(I)cc3F)c(F)c2F)c1F (mixture of isomers) [Compound B-3, 3,4-Difluoro-2-(2-fluoro-4-iodoanilino)-5-[[3-fluoro-2-(methylsulfamoylamino)pyridin-4-yl]methyl]-N-(2-methylcyclopropyl)benzamide (mixture of 4 isomers)]
IC50 (BRAF; read-out: BRAF IC50; Table 3): 0.004 µM
IC50 (A549): 0.002 µM
IC50 (MEK1 [3]): 0.082 µM
IC50 (Calu-6): 0.014 µM
IC50 (NCI-H2122): 0.001 µM
microsomal CLint at 0.99 µM [2]: 22 µL/min/mg

O=C(NC1CC1)c1cc(Cc2ccnc(NS(=O)(=O)NC3CC3)c2F)c(F)c(F)c1Nc1ccc(I)cc1F [Compound A-5, N-Cyclopropyl-5-[[2-(cyclopropylsulfamoylamino)-3-fluoropyridin-4-yl]methyl]-3,4-difluoro-2-(2-fluoro-4-iodoanilino)benzamide]
IC50 (BRAF; read-out: BRAF IC50; Table 3): 0.005 µM
IC50 (A549): 0.005 µM
IC50 (MEK1 [3]): 0.01 µM
IC50 (Calu-6): 0.012 µM
IC50 (NCI-H2122): 0.001 µM
microsomal CLint at 0.99 µM [2]: 36 µL/min/mg

NC(=O)c1cc(Cc2ccnc(NS(=O)(=O)NCC3CC3)c2F)c(F)c(F)c1Nc1ccc(I)cc1F [Compound A-36]
IC50 (BRAF; read-out: BRAF IC50; Table 3): 0.005 µM
IC50 (A549): 0.026 µM
IC50 (MEK1 [3]): 0.074 µM
IC50 (Calu-6): 0.061 µM
IC50 (NCI-H2122): 0.017 µM
microsomal CLint at 0.99 µM [2]: 18 µL/min/mg

COCCNS(=O)(=O)Nc1nccc(Cc2cc(C(=O)NOC(C)(C)C)c(Nc3ccc(I)cc3F)c(F)c2F)c1F [Compound A-9, 3,4-Difluoro-2-(2-fluoro-4-iodoanilino)-5-[[3-fluoro-2-(2-methoxyethylsulfamoylamino)pyridin-4-yl]methyl]-N-[(2-methylpropan-2-yl)oxy]be nzamide]
IC50 (BRAF; read-out: BRAF IC50; Table 3): 0.004 µM
IC50 (A549): 0.002 µM
IC50 (MEK1 [3]): 0.004 µM
IC50 (Calu-6): 0.007 µM
IC50 (NCI-H2122): 0.0004 µM
microsomal CLint at 0.99 µM [2]: 56 µL/min/mg

O=C(NC1CC1)c1cc(Cc2ccnc(NS(=O)(=O)NCCF)c2F)c(F)c(F)c1Nc1ccc(I)cc1F [Compound A-6, N-cyclopropyl-3,4-difluoro-5-[[3-fluoro-2-(2-fluoroethylsulfamoylamino)pyridin-4-yl]methyl]-2-(2-fluoro-4-iodoanilino)benzamide]
IC50 (BRAF; read-out: BRAF IC50; Table 3): 0.01 µM
IC50 (A549): 0.017 µM
IC50 (MEK1 [3]): 0.012 µM
IC50 (Calu-6): 0.019 µM
IC50 (NCI-H2122): 0.003 µM
microsomal CLint at 0.99 µM [2]: 20 µL/min/mg

CC(C)NS(=O)(=O)Nc1nccc(Cc2cc(C(N)=O)c(Nc3ccc(I)cc3F)c(F)c2F)c1F [Compound A-31, 3,4-difluoro-2-(2-fluoro-4-iodoanilino)-5-[[3-fluoro-2-(propan-2-ylsulfamoylamino)pyridin-4-yl]methyl]benzamide]
IC50 (BRAF; read-out: BRAF IC50; Table 3): 0.006 µM
IC50 (A549): 0.02 µM
IC50 (MEK1 [3]): 0.049 µM
IC50 (Calu-6): 0.031 µM
IC50 (NCI-H2122): 0.007 µM
microsomal CLint at 0.99 µM [2]: 9 µL/min/mg

NC(=O)c1cc(Cc2cccc(NS(=O)(=O)C3CC3)c2F)c(F)c(F)c1Nc1ccc(I)cc1F [Compound E-22, 5-[[3-(Cyclopropylsulfonylamino)-2-fluorophenyl]methyl]-3,4-difluoro-2-(2-fluoro-4-iodoanilino)benzamide]
IC50 (BRAF; read-out: BRAF IC50; Table 3): 0.004 µM
IC50 (A549): 0.006 µM
IC50 (MEK1 [3]): 0.302 µM
IC50 (Calu-6): 0.087 µM
IC50 (NCI-H2122): 0.003 µM
microsomal CLint at 0.99 µM [2]: 18 µL/min/mg

NC(=O)c1cc(Cc2cccc(NS(=O)(=O)C3CCOCC3)c2F)c(F)c(F)c1Nc1ccc(I)cc1F [Compound E-23, 3,4-difluoro-2-(2-fluoro-4-iodoanilino)-5-[[2-fluoro-3-(oxan-4-ylsulfonylamino)phenyl]methyl]benzamide]
IC50 (BRAF; read-out: BRAF IC50; Table 3): 0.006 µM
IC50 (A549): 0.031 µM
IC50 (MEK1 [3]): 0.061 µM
IC50 (Calu-6): 0.047 µM
IC50 (NCI-H2122): 0.004 µM
microsomal CLint at 0.99 µM [2]: 98 µL/min/mg

COCCNS(=O)(=O)Nc1nccc(Cc2cc(C(N)=O)c(Nc3ccc(I)cc3F)c(F)c2F)c1F [Compound A-33, 3,4-difluoro-2-(2-fluoro-4-iodoanilino)-5-[[3-fluoro-2-(2-methoxyethylsulfamoylamino)pyridin-4-yl]methyl]benzamide]
IC50 (BRAF; read-out: BRAF IC50; Table 3): 0.002 µM
IC50 (A549): 0.027 µM
IC50 (MEK1 [3]): 0.01 µM
IC50 (Calu-6): 0.068 µM
IC50 (NCI-H2122): 0.008 µM
microsomal CLint at 0.99 µM [2]: 6 µL/min/mg

Source: patent EP4725941A1, “ARYLAMIDE DERIVATIVE HAVING ANTITUMOR ACTIVITY” (priority 2020, dated 2021)
